Assay results taken from patent EP4566586A1, “SKIN-CARE PRODUCT COMPOSITION AND PHARMACEUTICAL COMPOSITION COMPRISING SULFONATED CALIXARENE, AND USE OF SULFONATED CALIXARENE” (Calix Biotechnology (Hangzhou) Co., Ltd, priority 2022, dated 2024).
≈ marks a conversion by molar mass, not a printed value. Marks after values point to notes of the source that are not given here.

What was measured:
[1] = UV titration, binding constants between SC8A-12C and skincare active substances; settings: 25°C, 1:1 host-guest direct binding model; for Binding constants Ka: host SC8A-12C, active substance 15 µM in deionized water
Description: (§1) Test Method: UV titration.
Test Equipment: A Japan Shimadzu UV-3600 UV-Visible Spectrophotometer, equipped with a temperature control module (model: PTC-348WI), was used. The samples were tested using Shimadzu's quartz cuvettes with an optical path length of 10 mm.
(§2) Reagents: Vitamin A (Va) was purchased from Shanghai Macklin Biochemical Technology Co., Ltd, retinoic acid was purchased from Heowns Biochem Technologies, LLC, Tianjin, and other skincare active substances were commercially available products.
(§3) Va was dissolved in methanol to a concentration of 2 mM. During the test, the Va stock solution was added to a cuvette and adjusted to a volume of 3 mL with deionized water, resulting in a concentration of 10 µM. […] The binding constant Kα for the host-guest inclusion was determined.
During the test, the retinoic acid stock solution was added to a cuvette and adjusted to a volume of 3 mL with deionized water, resulting in a concentration of 15 µM.
During the test, the stock solution of the active substance was added to a cuvette and adjusted to a volume of 3 mL with deionized water, resulting in a concentration of 15 µM. […] The UV titration data were fitted using a 1:1 host-guest direct binding model to determine the binding constant Kα for the host-guest inclusion.

[2] = Solubilization of Vitamin A by sulfonated calixarene (UV absorption); format: physicochemical
Description: Testing Method: UV Absorption Spectroscopy.
In 3 mL of deionized water, 5 mg (an excess amount) of Vitamin A was added, and the mixture was shaken overnight. The mixture was then centrifuged to collect the supernatant, and the UV Absorption Curve of the supernatant was measured (Figure 5).
Excess Va was added to each of these three solutions at a concentration of 5 mg/mL and shaken on a shaker to enhance the solubility of Va. After 24 hours, each group of solution was diluted 40-fold for UV absorption wavelength measurement. Meanwhile, Va was dissolved in methanol solution to prepare a 4 mM Va methanol stock solution. The Va methanol stock solution was then diluted in water to prepare a 5 µM Va standard solution with methanol as a solvent aid, which was used for UV absorption wavelength measurement.
An excess amount of Va was added to each of these solutions at 5 mg/mL, and the solutions were agitated on a shaking table to enhance the solubility of Va. After 24 hours, each group of solutions was diluted by an appropriate multiple (to fit the standard working curve described below) and used for the measurement of UV absorbance intensity.
A standard working curve for Va was prepared. A methanol solution containing 4 mM of Va was prepared. […] Subsequently, the UV absorbance intensities of these six groups of solutions with different concentrations of Va were measured, and a standard working curve was prepared.

physchem = settings: water
Description: Test Method: UV Absorption Spectroscopy.
The UV absorption intensities were measured, and a standard working curve was prepared. […] The mixtures were shaken overnight and then centrifuged to collect the supernatant for UV absorption curve detection.

[3] = UV titration, binding constants between SC8A-12C and skincare active substances; settings: host SC8A-12C, active substance 15 µM in deionized water, 25°C, 1:1 host-guest direct binding model
Description: as §1, §2
as §3, with “The change in UV absorption intensity was recorded after each addition of the SC8A-12C stock solution. […] The” for “The”
SC8A-12C stock solution and retinoic acid stock solution were first prepared. […] During the test, the retinoic acid stock solution was added to a cuvette and adjusted to a volume of 3 mL with deionized water, resulting in a concentration of 15 µM. […] The change in UV absorption intensity was recorded after each addition of the SC8A-12C stock solution.
During the test, the stock solution of the active substance was added to a cuvette and adjusted to a volume of 3 mL with deionized water, resulting in a concentration of 15 µM. […] The change in UV absorption intensity was recorded after each addition of the SC8A-12C stock solution. […]

[4] = Solubilization of Retinoic acid by sulfonated calixarene (UV absorption); format: physicochemical; settings: 5 mg retinoic acid in 3 mL deionized water, shaken overnight, supernatant UV
Description: Testing Equipment: A Japan Shimadzu UV-3600 UV-Visible Spectrophotometer, equipped with a temperature control module (model: PTC-348WI), was used. The samples were tested using Shimadzu's quartz cuvettes with an optical path length of 10 mm.
Excess retinoic acid was added to each of the three groups of solutions at a concentration of 5 mg/mL, followed by ultrasonic treatment to enhance the solubility of retinoic acid. After 20 mins, each group of solution was diluted 10-fold for UV absorption wavelength measurement. At the same time, 5 mg (an excess amount) of retinoic acid was added to 3 mL of deionized water, the mixture was shaken overnight, centrifuged to obtain the supernatant. […] Retinoic acid was dissolved in methanol solution to prepare a stock solution of 4 mM retinoic acid in methanol. After 20 mins, the stock solution of retinoic acid in methanol was diluted in water to prepare a retinoic acid standard solution with an appropriate concentration, for UV absorption wavelength detection. […]
A standard working curve for retinoic acid was prepared. […] Subsequently, the UV absorbance intensities of these six groups of solutions with different concentrations of retinoic acid were measured, and a standard working curve was prepared.

[5] = Skin permeability test of retinoic acid (transdermal diffuser); format: in vitro ADME; settings: ointment base (cream), retinoic acid 1% (w/w), pig skin, 37°C, 24 hours
Description: Testing Method: Skin Permeability Test
Testing Equipment: TP-6 Intelligent Transdermal Diffuser (Tianjin Jingtuo Instrument Technology Co., Ltd.)
Undamaged sections were cut into uniform thickness pieces, approximately 2 cm × 2 cm in size, wrapped in plastic wrap, and stored at -20°C for later use.
The concentration of retinoic acid in the inclusion complex was determined by UV detection, and subsequently diluted to 0.1% (w/w). Additionally, 3 mg of retinoic acid was weighed and mixed with 297 mg of cream in a mortar. The mixture was thoroughly ground to dissolve retinoic acid in the cream, resulting in a retinoic acid concentration of 1% (w/w).
The skin was placed between the diffusion and receptor compartments after thawing. The receptor compartment was filled with the receptor solution (deionized water), and all air bubbles were expelled. The receptor compartment was maintained at 37°C in a circulating water bath throughout the experiment. The transdermal diffuser was activated, with a magnetic stirring speed set at 300 r·min^-1. After 24 hours, the solutions from the receptor compartments of each group were collected for UV detection.

[6] = Skin permeability test of Va (transdermal diffuser); format: in vitro ADME; settings: Va 0.4% (w/w), pig skin, 37°C, 55 hours
Description: Undamaged sections were cut into uniform thickness pieces approximately 2 cm × 2 cm in size, wrapped in plastic wrap, and stored at -20°C for later use. 0.8 mg of Va and 200 mg of skincare cream (ointment base) were weighed and added to a mortar. The mixture was thoroughly ground to dissolve Va in the skincare cream, resulting in a Va concentration of 0.4% (w/w). Subsequently, 0.8 mg of Va was weighed and dispersed in 200 µL of water by thoroughly shaking to prepare a suspension of Va (water base), with a Va concentration of 0.4% (w/w). […] The concentration of Va in the inclusion complex was also 0.4% (w/w). The skin was placed between the diffusion and receptor compartments after thawing. The receptor compartment was filled with the receptor solution (deionized water), and all air bubbles were expelled. The receptor compartment was maintained at 37°C in a circulating water bath throughout the experiment. The transdermal diffuser was activated, with a magnetic stirring speed set at 300 r·min^-1. After 55 hours, the solutions from the receptor compartments of each group were collected for UV detection.

[7] = Stabilization of Va by SC8A-12C (UV-visible spectrophotometry); format: physicochemical; settings: free Va, methanol as a solvent aid, stored for two days in the dark
Description: Testing Method: UV-Visible Spectrophotometry.
Va was dissolved in methanol to prepare a Va methanol solution with a concentration of 4 mM, which was then kept in the dark for two days. The UV absorptions of both the freshly prepared and the two-day stored Va methanol solutions were tested. During the testing, the Va methanol solution was first added to a cuvette, and deionized water was used to adjust the volume to 3 mL, achieving a final concentration of Va at 10 µM.

Compound	Binding constants Ka [1]	other results
CCCCCCCCCCO[C@@H]1O[C@H](CO)[C@@H](O)[C@H](O)[C@H]1O [decyl glucoside]	3.3±0.5×10^4 M^-1	
O=C(O)CCCCCCCC(=O)O [azelaic acid]	5.2±0.1×10^3 M^-1	
O=S(=O)(O)c1cc2c(O)c(c1)Cc1cc(S(=O)(=O)O)cc(c1O)Cc1cc(S(=O)(=O)O)cc(c1O)Cc1cc(S(=O)(=O)O)cc(c1O)Cc1cc(S(=O)(=O)O)cc(c1O)Cc1cc(S(=O)(=O)O)cc(c1O)Cc1cc(S(=O)(=O)O)cc(c1O)Cc1cc(S(=O)(=O)O)cc(c1O)C2 [SC8A, Sulfonated calix[8]arene]		solubilization of Va [2]: failed to solubilize Va
O=C1O[C@H]([C@@H](O)CO)C(O)=C1O[C@H]1O[C@H](CO)[C@@H](O)[C@H](O)[C@H]1O [ascorbyl glucoside]	5.2±0.3×10^3 M^-1	
CC(c1ccccc1)c1ccc(O)cc1O (stereo not shown) [phenylethyl resorcinol]		solubility (physchem): 4900 µg/mL (≈ 22.9 mM)
palmitoyl tripeptide-5		Binding constants Ka [3]: 6.3±0.6×10^3 M^-1
Cn1c(=O)c2c(ncn2C)n(C)c1=O [caffeine]	3.2±0.8×10^3 M^-1	
O=S(=O)(O)c1cc2c(O)c(c1)Cc1cc(S(=O)(=O)O)cc(c1O)Cc1cc(S(=O)(=O)O)cc(c1O)Cc1cc(S(=O)(=O)O)cc(c1O)C2 [SC4A, Sulfonated calix[4]arene]		solubilization of Va [2]: failed to solubilize Va
ceramides	6.5±0.2×10^3 M^-1	
cocamidopropyl betaine	0.8±0.1×10^4 M^-1	
CC1=C(/C=C/C(C)=C/C=C/C(C)=C/C(=O)O)C(C)(C)CCC1 [retinoic acid]		solubility of retinoic acid in water [4]: hardly soluble; retinoic acid in the receptor compartment (UV absorption peak) [5]: no absorption peak of retinoic acid was detected
OC[C@H]1O[C@@H](Oc2ccc(O)cc2)[C@H](O)[C@@H](O)[C@@H]1O [arbutin]	4.3±0.5×10^3 M^-1	
CC(C)CCC[C@@H](C)[C@H]1CC[C@H]2[C@@H]3CC=C4C[C@@H](O)CC[C@]4(C)[C@H]3CC[C@]12C [cholesterol]	2.3±0.5×10^5 M^-1	

Now from value to compound, other results behind:

Binding constants Ka [1]	Compound	other results
5.3±0.4×10^3 M^-1	OC[C@@H](O)[C@@H](O)[C@H](O)[C@@H](O)CO [sorbitol]	
2.6±0.3×10^3 M^-1	proanthocyanidins	
2.5±0.5×10^3 M^-1	sphingolipids	
3.8±0.3×10^3 M^-1	CCCCCCOC(=O)c1ccccc1C(=O)c1ccc(N(CC)CC)cc1O [diethylamino hydroxybenzoyl hexyl benzoate]	
2.8±0.6×10^4 M^-1	α-bisabolol	
2.9±0.2×10^3 M^-1	Nc1ccc(C(=O)OCC(O)CO)cc1 (stereo not shown) [glyceryl p-aminobenzoate]	
4.4±0.5×10^5 M^-1	vitamin A	Va in the receptor compartment ([6]; ointment base): no Va was detected; permeability of Va ([6]; water base (suspension)): not good enough; binding constant Kα of SC8A-12C ([1]; guest Va 10 µM (317 nm) or retinoic acid 15 µM): (4.0 ± 0.5) ×10^5 M^-1; UV absorption of the Va aqueous solution after storage [7]: significantly decreased; solubility of Va in water ([2]; 5 mg Va in 3 mL deionized water, shaken overnight, supernatant UV): almost insoluble; [dissolved Va] ([2]; [SC8A-12C] 0 µM, Not detected under UV): 0* µM
2.6±0.4×10^3 M^-1	vitamin E	
